Results: publication PMC8617031, “Development of a BCL-xL and BCL-2 dual degrader with improved anti-leukemic activity,” (Nature Communications, 2021)
Where “and” joins values, the source holds several entries; their conditions need not be identical. Identical values can stand only once.

Legend:
BCL-xL = target: T1, BCL-xL (Homo sapiens, UniProt Q07817); assay: BCL-xL degradation by immunoblot in 293T cells; format: cell-based; details: for DC50: four concentrations, Fig. 2b, read-out: BCL-xL DC50; for Dmax: HEK-293T
T1 construct: endogenous in cells
Protocol: (§1) The DC50 and Dmax were calculated using Prism based on the ImageJ-quantified western blots in Supplementary Fig. 4. c, d AlphaLISA assay to determine the formation of BCL-xL/PROTAC/VHL-ELOC-ELOB (VCB) (c) or BCL-2/PROTAC/VCB (d) ternary complex in a cell-free condition. Data represent the mean of a single experiment with 2 technical replicates. Similar results were obtained in one more independent experiment. e, f NanoBRET assays evaluating intracellular BCL-xL/PROTAC/VCB (e) or BCL-2/PROTAC/VCB (f) ternary complex formation. […] Data are expressed as mean ± s.e.m. of three biological replicates. Source data are provided as a Source data file.
(§2) Representative immunoblots are shown in (a–d) and β-actin was used as a loading control in all immunoblot analyses. The normalized protein content in the immunoblots is presented as mean values ± s.e.m. (n = 3 biologically independent experiments) in the bar graph (bottom panel). e, f The formation of BCL-xL/PROTAC/VCB (e) and BCL-2/PROTAC/VCB (f) ternary complexes in a cell-free condition was determined by AlphaLISA assay. Data represent the mean of a single experiment with 2 technical replicates. […] Source data are provided as a Source data file.
(§3) Cells were collected, washed once with ice-cold phosphate-buffered saline, pH 7.2 (PBS, cat. no. 20012027; Thermo Fisher Scientific) and lysed in RIPA lysis buffer (Cat. No. BP-115DG, Boston Bio Products, Ashland, MA, USA) supplemented with protease and phosphatase inhibitor cocktails (Cat. No. PPC1010, Sigma-Aldrich, St. Louis, MO, USA) through sonication. The samples were centrifuged at 14,000 r.p.m. for 5 min and the supernatants were transferred into a new tube. The protein concentration in the supernatants was determined using the Pierce BCA protein Assay kit (cat. no. 23225, Thermo Fisher Scientific). The protein concentration was normalized, and the samples were reduced in 4× Laemmli’s SDS-sample buffer (cat. no. BP-110R, Boston Bio Products) and denatured at 95 °C for 5 min. An equal amount of protein samples (20–40 μg per lane) were resolved using precast 4–20% Tris-glycine gels (Mini-PROTEAN TGX, cat. no. 456–1094, Bio-Rad), and resolved proteins were transferred onto 0.2-µm pore size polyvinylidene difluoride (PVDF) blotting membranes (cat. no. LC2002, Thermo Fisher Scientific) using mini trans-blot electrophoretic transfer cell (Bio-Rad). The membranes were blocked with non-fat dry milk (5% wt/vol) in 1× Tris-buffered saline-Tween-20 (TBST, cat. no. J77500, Affymetrix) for 1 h at room temperature, and were subsequently probed with primary antibodies at a predetermined optimal concentration in non-fat dry milk (5% wt/vol in TBST) overnight at 4 °C. The membranes were washed three times (5 min each) in TBST and then incubated with horse radish peroxidase (HRP)-conjugated secondary antibodies for 1 h at room temperature. Following sufficient washing with TBST, the membranes were exposed with chemiluminescent HRP substrate (cat. no. WBKLS0500, MilliporeSigma), and the signal was detected using the ChemiDoc MP Imaging System (Bio-Rad) and quantified using the ImageJ (v1.53a) software from NIH.

BCL-2 = target: T2, BCL-2 (Homo sapiens, UniProt P10415); assay: BCL-2 degradation by immunoblot in 293T cells; format: cell-based; details: for Dmax: HEK-293T
T2 construct: endogenous in cells
Protocol: as §1, §2, §3

[1] = target: T3, BCL-xL/PROTAC/VHL-ELOC-ELOB (VCB) ternary complex (Homo sapiens, UniProt P40337+Q07817); assay: AlphaLISA ternary complex formation, cell-free, BCL-xL; format: binding; details: for in vitro ternary complex formation with BCL-xL (in words): AlphaLISA, cell-free, Fig. 2c, 3e; for AlphaLISA signal, BCL-xL/PROTAC/VCB: Fig. 2c raw Alpha reads
T3 construct: pGEX-6P-1-VHL(54-213) (pDL2200) was constructed through Gibson assembly method; made in house; host or cells: bacterial culture (LB broth, IPTG induction)
Protocol: (§4) AlphaLISA assay was used to evaluate the in vitro ternary complex formation between target proteins (BCL-xL or BCL-2), PROTAC and E3 ligase (VCB complex). In each well, 5 nM His-tagged BCL-xL or BCL-2 proteins and 5 nM GST-VCB complex was incubated with varying concentrations of compounds in fourfold serial dilutions, to a final volume of 40 µl in a 96-well PCR plate. After incubation at room temperature for 30 min, 5 µl alpha glutathione-donor beads (Cat. No. 6765300, PerkinElmer) were added to each well (20 µg/ml final concentration) and incubated for another 15 min. Thereafter, 5 µL 6× His-acceptor beads were added to each well (20 µg/ml final concentration) and incubated for an additional 45 min at room temperature. Thereafter, 17 µl of each sample was transferred in adjacent wells of a 384-well proxy plate, and the plate was scanned using the Alpha program on Biotek’s Synergy Neo2 multimode plate reader. The data were expressed as average AlphaLISA signal and plotted against different concentrations of compounds using GraphPad Prism 9 software.

[2] = target: T4, BCL-2/PROTAC/VCB ternary complex (Homo sapiens, UniProt P10415+P40337); assay: AlphaLISA ternary complex formation, cell-free, BCL-2; format: binding; details: for in vitro ternary complex formation with BCL-2 (in words): AlphaLISA, cell-free, Fig. 2d, 3f; for AlphaLISA signal, BCL-2/PROTAC/VCB: Fig. 2d raw Alpha reads
T4 construct: pGEX-6P-1-VHL(54-213) (pDL2200) was constructed through Gibson assembly method; made in house; host or cells: bacterial culture (LB broth, IPTG induction)
Protocol: as §4

[3] = compound 200000 nM, 2 technical replicates

T1 sequence (Q07817 whole entry): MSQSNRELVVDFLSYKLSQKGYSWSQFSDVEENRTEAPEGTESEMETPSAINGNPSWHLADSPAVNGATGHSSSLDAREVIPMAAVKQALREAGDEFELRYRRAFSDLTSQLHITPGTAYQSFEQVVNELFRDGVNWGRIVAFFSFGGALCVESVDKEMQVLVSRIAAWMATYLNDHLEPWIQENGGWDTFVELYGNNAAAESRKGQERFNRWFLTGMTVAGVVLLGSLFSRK
T3 sequence (Q07817 1-212 limits assumed): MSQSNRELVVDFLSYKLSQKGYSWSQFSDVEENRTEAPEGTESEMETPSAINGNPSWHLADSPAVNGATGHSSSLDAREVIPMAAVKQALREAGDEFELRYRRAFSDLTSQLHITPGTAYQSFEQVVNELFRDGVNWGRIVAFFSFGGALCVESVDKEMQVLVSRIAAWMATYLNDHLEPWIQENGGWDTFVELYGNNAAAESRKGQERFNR
T3 sequence (P40337 54-213 limits assumed): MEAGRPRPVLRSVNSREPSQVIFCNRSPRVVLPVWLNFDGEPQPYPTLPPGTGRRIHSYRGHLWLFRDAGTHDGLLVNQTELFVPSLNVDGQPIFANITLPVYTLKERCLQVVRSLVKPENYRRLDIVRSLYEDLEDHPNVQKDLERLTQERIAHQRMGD
T3 sequence (Q15369 17-112 partner limits assumed): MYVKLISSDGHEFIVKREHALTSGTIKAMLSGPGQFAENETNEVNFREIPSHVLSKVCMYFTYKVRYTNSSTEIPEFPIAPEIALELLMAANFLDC
T3 sequence (Q15370 whole entry partner): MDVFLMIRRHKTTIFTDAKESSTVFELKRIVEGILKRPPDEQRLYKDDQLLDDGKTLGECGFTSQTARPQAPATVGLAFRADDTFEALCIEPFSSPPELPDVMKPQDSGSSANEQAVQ
T4 sequence (P10415 1-211 limits assumed): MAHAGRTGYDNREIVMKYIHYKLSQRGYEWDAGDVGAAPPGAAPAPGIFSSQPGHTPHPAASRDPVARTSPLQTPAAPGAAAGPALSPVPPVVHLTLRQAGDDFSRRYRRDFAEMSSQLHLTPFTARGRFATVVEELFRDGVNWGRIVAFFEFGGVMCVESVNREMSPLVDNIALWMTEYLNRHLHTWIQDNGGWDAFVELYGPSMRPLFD
T4 sequence (P40337 54-213 limits assumed): as the sequence (P40337 54-213 limits assumed) above
T4 sequence (Q15369 17-112 partner limits assumed): as the sequence (Q15369 17-112 partner limits assumed) above
T4 sequence (Q15370 whole entry partner): as the sequence (Q15370 whole entry partner) above
T2 sequence (P10415 whole entry): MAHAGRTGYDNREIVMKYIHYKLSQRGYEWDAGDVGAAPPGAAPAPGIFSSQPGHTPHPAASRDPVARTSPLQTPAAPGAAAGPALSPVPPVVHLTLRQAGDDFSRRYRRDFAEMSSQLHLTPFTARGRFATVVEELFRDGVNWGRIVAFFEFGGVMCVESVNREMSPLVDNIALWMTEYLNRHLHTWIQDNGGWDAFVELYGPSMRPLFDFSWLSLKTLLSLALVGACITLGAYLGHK

SMILES	DC50 (BCL-xL; 293T cells, 16 h) [nM]	Dmax (BCL-xL) [%]	Dmax (BCL-2) [%]	in vitro ternary complex formation with BCL-xL (in words) [1]	AlphaLISA signal, BCL-xL/PROTAC/VCB ([1]; compound 0.191 nM)	AlphaLISA signal, BCL-xL/PROTAC/VCB ([1]; compound 0.763 nM)	AlphaLISA signal, BCL-xL/PROTAC/VCB ([1]; compound 3.052 nM)	AlphaLISA signal, BCL-xL/PROTAC/VCB ([1]; compound 12.207 nM)	AlphaLISA signal, BCL-xL/PROTAC/VCB ([1]; compound 48.828 nM)	AlphaLISA signal, BCL-xL/PROTAC/VCB ([1]; compound 195.31 nM)	AlphaLISA signal, BCL-xL/PROTAC/VCB ([1]; compound 781.25 nM)	AlphaLISA signal, BCL-xL/PROTAC/VCB ([1]; compound 12500 nM)	AlphaLISA signal, BCL-xL/PROTAC/VCB ([1]; compound 50000 nM)	in vitro ternary complex formation with BCL-2 (in words) [2]	AlphaLISA signal, BCL-2/PROTAC/VCB ([2]; compound 0.191 nM)	AlphaLISA signal, BCL-2/PROTAC/VCB ([2]; compound 0.763 nM)	AlphaLISA signal, BCL-2/PROTAC/VCB ([2]; compound 3.052 nM)	AlphaLISA signal, BCL-2/PROTAC/VCB ([2]; compound 12.207 nM)	AlphaLISA signal, BCL-2/PROTAC/VCB ([2]; compound 48.828 nM)	AlphaLISA signal, BCL-2/PROTAC/VCB ([2]; compound 195.31 nM)	also measured
Cc1ncsc1-c1ccc([C@H](C)NC(=O)[C@@H]2C[C@@H](O)CN2C(=O)[C@@H](NC(=O)CCCC(=O)N2CCN(CC3(C)CCC(c4ccc(Cl)cc4)=C(CN4CCN(c5ccc(C(=O)NS(=O)(=O)c6ccc(N[C@H](CCN7CCOCC7)CSc7ccccc7)c(S(=O)(=O)C(F)(F)F)c6)cc5)CC4)C3)CC2)C(C)(C)C)cc1 (some centres unmarked) [PPC5]	316	56	47	stronger ternary complexes	14064 and 15339	16647 and 16446	29664 and 30068	308120 and 297735	915794 and 868616	760327 and 820012	680312 and 708753	45345 and 53654	21182 and 20463	stronger ternary complexes	15183 and 13115	15317 and 19455	45755 and 47236	410345 and 373015	1136924 and 1140765	1286256 and 1221888	BCL-xL degradation (in words) (BCL-xL; 293T cells, 16 h): partially degrade BCL-xL; AlphaLISA signal, BCL-xL/PROTAC/VCB ([1]; compound 3125 nM): 257573 and 298187; AlphaLISA signal, BCL-2/PROTAC/VCB ([2]; compound 781.25 nM): 709163 and 786788; AlphaLISA signal, BCL-2/PROTAC/VCB ([2]; compound 3125 nM): 91120 and 92885; AlphaLISA signal, BCL-2/PROTAC/VCB ([2]; compound 12500 nM): 18341 and 15512
Cc1ncsc1-c1ccc([C@H](C)NC(=O)[C@@H]2C[C@@H](O)CN2C(=O)[C@@H](NC(=O)CCCCCCCCC(=O)N2CCN(CC3(C)CCC(c4ccc(Cl)cc4)=C(CN4CCN(c5ccc(C(=O)NS(=O)(=O)c6ccc(N[C@H](CCN7CCOCC7)CSc7ccccc7)c(S(=O)(=O)C(F)(F)F)c6)cc5)CC4)C3)CC2)C(C)(C)C)cc1 (some centres unmarked) [PPC10]	12.1	81	69	much weaker ternary complexes	14831 and 16852	20168 and 16739	14541 and 18037	19478 and 16699	33222 and 36251	136427 and 150589	133700 and 133335	16869 and 17291	11499 and 11443	much weaker ternary complexes	13116 and 18939	20209 and 15528	15560 and 16756	23256 and 23865	69142 and 68261	218425 and 202826	BCL-2 degradation (in words) (BCL-2; 293T cells, 16 h): also degraded BCL-2; DC50 (BCL-2; 293T cells, four concentrations, 16 h, Fig. 2b, read-out: BCL-2 DC50): 355 nM; AlphaLISA signal, BCL-xL/PROTAC/VCB [1, 3]: 9101 and 11295; AlphaLISA signal, BCL-2/PROTAC/VCB ([2]; compound 781.25 nM): 114837 and 140035; AlphaLISA signal, BCL-2/PROTAC/VCB ([2]; compound 3125 nM): 20525 and 27108; AlphaLISA signal, BCL-2/PROTAC/VCB ([2]; compound 12500 nM): 13932 and 13026; AlphaLISA signal, BCL-2/PROTAC/VCB ([2]; compound 50000 nM): 10041 and 13037; AlphaLISA signal, BCL-2/PROTAC/VCB [2, 3]: 11345 and 10101
